The target of one assay is T1, Nav1.7 (or SCN9A) channel; HEK cells stably transfected with hSCN9A (Homo sapiens, UniProt Q15858).
T1 construct: expressed in transfected cells
T1 sequence (Q15858 whole entry): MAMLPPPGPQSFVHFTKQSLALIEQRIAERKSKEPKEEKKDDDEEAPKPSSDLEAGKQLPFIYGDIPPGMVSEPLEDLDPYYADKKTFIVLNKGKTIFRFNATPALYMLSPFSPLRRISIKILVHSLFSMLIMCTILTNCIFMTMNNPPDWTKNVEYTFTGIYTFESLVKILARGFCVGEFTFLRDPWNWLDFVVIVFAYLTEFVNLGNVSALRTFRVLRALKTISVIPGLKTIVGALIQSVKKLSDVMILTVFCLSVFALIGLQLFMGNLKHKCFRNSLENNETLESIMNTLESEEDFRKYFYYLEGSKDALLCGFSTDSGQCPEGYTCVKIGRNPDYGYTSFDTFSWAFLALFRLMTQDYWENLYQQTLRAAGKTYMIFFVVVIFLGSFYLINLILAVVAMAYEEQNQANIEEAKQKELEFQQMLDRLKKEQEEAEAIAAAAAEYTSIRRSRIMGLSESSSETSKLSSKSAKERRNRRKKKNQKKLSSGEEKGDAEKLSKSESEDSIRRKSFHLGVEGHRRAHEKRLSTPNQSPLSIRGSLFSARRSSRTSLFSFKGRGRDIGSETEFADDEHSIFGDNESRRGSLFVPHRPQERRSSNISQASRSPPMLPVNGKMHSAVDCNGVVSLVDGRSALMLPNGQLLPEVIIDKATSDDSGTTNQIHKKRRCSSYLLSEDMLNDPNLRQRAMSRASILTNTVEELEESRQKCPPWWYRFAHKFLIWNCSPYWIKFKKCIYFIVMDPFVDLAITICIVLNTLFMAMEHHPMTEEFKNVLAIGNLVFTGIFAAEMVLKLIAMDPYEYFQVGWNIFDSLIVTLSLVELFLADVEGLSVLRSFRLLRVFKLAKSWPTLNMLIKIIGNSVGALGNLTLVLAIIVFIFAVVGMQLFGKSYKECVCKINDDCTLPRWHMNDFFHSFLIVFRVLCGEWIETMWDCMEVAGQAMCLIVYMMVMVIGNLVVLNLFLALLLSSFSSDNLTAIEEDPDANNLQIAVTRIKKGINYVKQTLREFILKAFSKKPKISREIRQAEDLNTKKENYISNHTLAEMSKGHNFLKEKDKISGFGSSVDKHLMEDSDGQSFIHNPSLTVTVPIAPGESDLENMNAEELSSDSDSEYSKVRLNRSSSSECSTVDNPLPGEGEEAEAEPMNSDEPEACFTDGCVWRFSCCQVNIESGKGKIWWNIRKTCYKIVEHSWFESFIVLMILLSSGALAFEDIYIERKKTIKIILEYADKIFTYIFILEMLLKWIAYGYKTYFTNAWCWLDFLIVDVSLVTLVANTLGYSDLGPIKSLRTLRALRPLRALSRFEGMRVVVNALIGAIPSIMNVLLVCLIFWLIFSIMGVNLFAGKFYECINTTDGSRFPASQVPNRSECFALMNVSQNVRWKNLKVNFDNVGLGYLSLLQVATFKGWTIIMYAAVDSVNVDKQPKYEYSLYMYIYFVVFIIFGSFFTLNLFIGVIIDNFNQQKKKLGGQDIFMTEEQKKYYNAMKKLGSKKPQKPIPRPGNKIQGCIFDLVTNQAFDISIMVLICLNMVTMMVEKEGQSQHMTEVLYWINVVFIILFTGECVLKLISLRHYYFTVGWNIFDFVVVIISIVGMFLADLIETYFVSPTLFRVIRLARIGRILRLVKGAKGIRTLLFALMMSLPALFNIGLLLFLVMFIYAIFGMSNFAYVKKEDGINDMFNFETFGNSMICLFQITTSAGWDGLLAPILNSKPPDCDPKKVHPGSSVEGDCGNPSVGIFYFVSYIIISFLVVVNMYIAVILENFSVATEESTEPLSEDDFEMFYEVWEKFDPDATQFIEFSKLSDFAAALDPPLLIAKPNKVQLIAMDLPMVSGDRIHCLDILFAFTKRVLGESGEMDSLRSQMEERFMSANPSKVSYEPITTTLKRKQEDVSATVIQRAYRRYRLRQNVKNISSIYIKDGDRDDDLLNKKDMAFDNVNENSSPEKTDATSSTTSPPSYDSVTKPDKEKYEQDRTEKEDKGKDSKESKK
Description: Nav1.7 block, PatchXpress 7000 automated whole-cell voltage clamp, estimated IC50 (EIC50). It is filed as cell-based. The settings on record: PatchXpress platform; hSCN9A HEK cells held at V1/2 of inactivation; estimated IC50.
Broadly, the IC50 is the point on the concentration scale where inhibition reaches its midpoint. Take `Cc1ccc(Oc2ccc(S(=O)(=O)Nc3nccs3)cc2F)c(-c2ccnn2C)c1` [Example 222, 3-fluoro-4-(4-methyl-2-(1-methyl-1H-pyrazol-5-yl)phenoxy)-N-(thiazol-2-yl)benzenesulfonamide]: the IC50 is 60 nM.
Consider `CCc1nnc(C)n1-c1ccc(Oc2ccc(S(=O)(=O)Nc3nccs3)cc2F)cc1` [Example 132, 4-[4-(3-ethyl-5-methyl-4H-1,2,4-triazol-4-yl)phenoxy]-3-fluoro-N-1,3-thiazol-2-ylbenzenesulfonamide], for which the IC50 was 17300 nM.
Still for that read-out and setting: under `COc1cc(-c2ccccc2Oc2ccc(S(=O)(=O)Nc3ncns3)cc2C#N)ccc1C#N` [Example 13, 3-cyano-4-[(4′-cyano-3′-methoxybiphenyl-2-yl)oxy]-N-1,2,4-thiadiazol-5-ylbenzenesulfonamide] stands 170 nM; under `O=S(=O)(Nc1nccs1)c1ccc(Oc2ccc(F)cc2-c2ccn[nH]2)c(F)c1` [Example 218, 3-fluoro-4-(4-fluoro-2-(1H-pyrazol-5-yl)phenoxy)-N-(thiazol-2-yl)benzenesulfonamide], 230 nM; under `COc1ccc(-c2cccc(C)c2Oc2ccc(S(=O)(=O)Nc3ncns3)cc2C#N)cc1` [Example 42, 3-cyano-4-[(4′-methoxy-3-methylbiphenyl-2-yl)oxy]-N-1,2,4-thiadiazol-5-ylbenzenesulfonamide], 1730 nM.

The assay is the same for the next values; noted with them: estimated IC50; hSCN9A HEK cells, PatchXpress platform; Examples 283-814.
As for `Nc1ccnc(-c2cc(Cl)ccc2Oc2cc(F)c(S(=O)(=O)Nc3ncns3)cc2Cl)c1` [Example 554, 4-[2-(4-aminopyridin-2-yl)-4-chlorophenoxy]-5-chloro-2-fluoro-N-1,2,4-thiadiazol-5-ylbenzenesulfonamide], the IC50 is 120 nM.
Still for that read-out and setting: under `Cn1nccc1-c1cc(F)ccc1Oc1cc(F)c(S(=O)(=O)Nc2cscn2)cc1Cl` [Example 657, 5-chloro-2-fluoro-4-[4-fluoro-2-(1-methyl-1H-pyrazol-5-yl)phenoxy]-N-1,3-thiazol-4-ylbenzenesulfonamide] stands 83 nM.
For `Cn1nccc1-c1cc(OC(F)(F)F)ccc1Oc1ccc(S(=O)(=O)Nc2ncns2)cc1C#N` [Example 795, 3-cyano-4-[2-(1-methyl-1H-pyrazol-5-yl)-4-(trifluoromethoxy)phenoxy]-N-1,2,4-thiadiazol-5-ylbenzenesulfonamide], the half-maximal inhibitory concentration (IC50) is 4.6 nM.
Regarding `N#Cc1cc(S(=O)(=O)Nc2ncc(Cl)cn2)ccc1Oc1ccccc1-c1ccccc1` [Example 430, 4-(biphenyl-2-yloxy)-N-(5-chloropyrimidin-2-yl)-3-cyanobenzenesulfonamide], the IC50 is 12000 nM.
Regarding `N#Cc1cccc(NS(=O)(=O)c2ccc(Oc3ccccc3-c3ccccc3)c(C#N)c2)n1` [Example 421, 4-(biphenyl-2-yloxy)-3-cyano-N-(6-cyanopyridin-2-yl)benzenesulfonamide], the IC50 is 12000 nM.
For the compound `Nc1cccc(-c2cc(Cl)ccc2Oc2cc(F)c(S(=O)(=O)Nc3ncns3)cc2F)n1` [Example 409, 4-[2-(6-aminopyridin-2-yl)-4-chlorophenoxy]-2,5-difluoro-N-1,2,4-thiadiazol-5-ylbenzenesulfonamide], the IC50 is 19 nM.
Same read-out and setting: the result for `Cc1cc(-c2cc(C(F)(F)F)ccc2Oc2ccc(S(=O)(=O)Nc3ncns3)cc2C#N)ccn1` [Example 508, 3-cyano-4-[2-(2-methylpyridin-4-yl)-4-(trifluoromethyl)phenoxy]-N-1,2,4-thiadiazol-5-ylbenzenesulfonamide] reads 20 nM; that for `Cn1nccc1-c1ccc(Oc2ccc(S(=O)(=O)Nc3ncc(F)s3)cc2C#N)c(C#N)c1` [Example 538, 3-cyano-4-[2-cyano-4-(1-methyl-1H-pyrazol-5-yl)phenoxy]-N-(5-fluoro-1,3-thiazol-2-yl)benzenesulfonamide], 3400 nM; that for `N#Cc1cc(S(=O)(=O)Nc2nccs2)ccc1Oc1ccc(-n2ccc(C3CC3)n2)cc1` [Example 370, 3-cyano-4-[4-(3-cyclopropyl-1H-pyrazol-1-yl)phenoxy]-N-1,3-thiazol-2-ylbenzenesulfonamide], 1600 nM.
On the same count and under the same terms, the result for `Cn1nccc1-c1ccc(Oc2ccc(S(=O)(=O)Nc3nccs3)cc2C#N)cc1Cl` [Example 443, 4-[3-chloro-4-(1-methyl-1H-pyrazol-5-yl)phenoxy]-3-cyano-N-1,3-thiazol-2-ylbenzenesulfonamide] reads 1800 nM.
Take `COc1cc(-c2ccccc2Oc2ccc(S(=O)(=O)Nc3nccs3)cc2C#N)ccc1C#N` [Example 703]: the IC50 was 190 nM.
On the same count and under the same terms, under `COCCn1nccc1-c1cc(Cl)ccc1Oc1cc(F)c(S(=O)(=O)Nc2nncs2)cc1Cl` [Example 563, 5-chloro-4-{4-chloro-2-[1-(2-methoxyethyl)-1H-pyrazol-5-yl]phenoxy}-2-fluoro-N-1,3,4-thiadiazol-2-ylbenzenesulfonamide] stands 130 nM.
For the compound `O=S(=O)(Nc1cscn1)c1cc(Cl)c(Oc2ccc(C(F)(F)F)cc2-c2cn[nH]c2)cc1F` [Example 659, 5-chloro-2-fluoro-4-[2-(1H-pyrazol-4-yl)-4-(trifluoromethyl)phenoxy]-N-1,3-thiazol-4-ylbenzenesulfonamide], the IC50 was 91 nM.
`N#Cc1cc(S(=O)(=O)Nc2nccs2)ccc1Oc1ccc(-n2cc(F)cn2)cc1` [Example 774, 3-cyano-4-[4-(4-fluoro-1H-pyrazol-1-yl)phenoxy]-N-1,3-thiazol-2-ylbenzenesulfonamide]: the IC50 was greater than 1000 nM.

Still in this assay, the particulars now being: estimated IC50; hSCN9A HEK cells, PatchXpress platform; Examples 815-1040.
For `O=S(=O)(Nc1ncns1)c1cc(F)c(Oc2ccc(C(F)(F)F)cc2-c2cccnn2)cc1F` [Example 920, 2,5-difluoro-4-[2-pyridazin-3-yl-4-(trifluoromethyl)phenoxy]-N-1,2,4-thiadiazol-5-ylbenzenesulfonamide], the IC50 is 310 nM.
The same measure, in the same setting: under `Cc1nsc(NS(=O)(=O)c2cc(Cl)c(Oc3ccc(C(F)(F)F)cc3-c3ccnnc3)cc2F)n1` [Example 871, 5-chloro-2-fluoro-N-(3-methyl-1,2,4-thiadiazol-5-yl)-4-[2-pyridazin-4-yl-4-(trifluoromethyl)phenoxy]benzenesulfonamide] stands 25 nM; under `O=S(=O)(Nc1nncs1)c1cc(F)c(Oc2ccc(Cl)cc2-c2cc(N3CCOCC3)ncn2)cc1F` [Example 873, 4-[4-chloro-2-(6-morpholin-4-ylpyrimidin-4-yl)phenoxy]-2,5-difluoro-N-1,3,4-thiadiazol-2-ylbenzenesulfonamide], 3900 nM; under `Nc1cc(-c2cc(F)ccc2Oc2cc(F)c(S(=O)(=O)Nc3ccncn3)cc2Cl)ccn1` [Example 972, 4-[2-(2-aminopyridin-4-yl)-4-fluorophenoxy]-5-chloro-2-fluoro-N-pyrimidin-4-ylbenzenesulfonamide], 25 nM.
Regarding `COC(=O)N1CC(c2cc(Cl)ccc2Oc2ccc(S(=O)(=O)Nc3nccs3)cc2C#N)C1` [Example 995, methyl 3-(5-chloro-2-{2-cyano-4-[(1,3-thiazol-2-ylamino)sulfonyl]phenoxy}phenyl)azetidine-1-carboxylate], the half-inhibitory concentration (IC50) was 1300 nM.
`CC(C)(C#N)c1ccc(Oc2cc(F)c(S(=O)(=O)Nc3nncs3)cc2Cl)c(-c2ccnnc2)c1` [Example 1021, 5-chloro-4-[4-(1-cyano-1-methylethyl)-2-pyridazin-4-ylphenoxy]-2-fluoro-N-1,3,4-thiadiazol-2-ylbenzenesulfonamide]: the IC50 is 1300 nM.

The values above are taken from patent US8541588B2, “Sulfonamide derivatives” (Pfizer Limited, priority 2009, dated 2013).
